# Literature values in patent US20040009207A1, “Medicinal beverage containing molecular oxygen” (priority 2000, published 2004).
# Read-outs that look alike come from different tables or passages of the source.
compound,measurement,setting,value
"O=O [O2, molecular oxygen]",solubility of O2 in one litre water,0° C.,0.0491 L
same,solubility of O2 in one litre water,50° C.,0.0209 L
